Experimental data reported in US20100298141A1, “SUBSTITUTED PYRIDINE N-OXIDE HERBICIDES” (E. I. DU PONT DE NEMOURS AND COMPANY, priority 2007, published 2010).

How the values were obtained:
[1] = test system: mustard; experiment: Test F preemergence test; type: in vivo, Brassica nigra; settings: scale 0 to 100
Outline: (§1)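 Preemergence application to planted seeds, or postemergence to sugarcane plants; compound in non-phytotoxic solvent mix plus surfactant. Greenhouse, 14-21 days. Visual rating vs. controls.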

[2] = test system: purple nutsedge; experiment: Test F preemergence test; type: in vivo, Cyperus rotundus; settings: scale 0 to 100
Outline: as §1

[3] = test system: large crabgrass; experiment: Test F preemergence test; type: in vivo, Digitaria sanguinalis; settings: scale 0 to 100
Outline: as §1

[4] = test system: barnyardgrass; experiment: Test F preemergence test; type: in vivo, Echinochloa crus-galli
Outline: as §1

[5] = test system: woolly cupgrass; experiment: Test C pre-/postemergence test; type: in vivo, Eriochloa villosa
Outline: (§2)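 Test chemicals were formulated with surfactant in a non-phytotoxic solvent and sprayed both on freshly planted seeds (preemergence) and on 1- to 4-leaf plants of 2–18 cm (postemergence). Flooded-paddy pots received compound directly into 3 cm of standing water, maintained for the test.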

[6] = test system: broadleaf signalgrass; experiment: Test F preemergence test; type: in vivo, Brachiaria platyphylla; settings: scale 0 to 100
Outline: as §1

[7] = test system: kochia; experiment: Test F preemergence test; type: in vivo, Kochia scoparia; settings: preemergence, scale 0 to 100
Outline: as §1

[8] = test system: common ragweed; experiment: Test F preemergence test; type: in vivo, Ambrosia elation; settings: scale 0 to 100
Outline: as §1

[9] = test system: Italian ryegrass; experiment: Test F preemergence test; type: in vivo, Lolium multiflorum; settings: scale 0 to 100
Outline: as §1

[10] = test system: quackgrass; experiment: Test F preemergence test; type: in vivo, Elytrigia repens; settings: scale 0 to 100
Outline: as §1

[11] = test system: corn; experiment: Test C pre-/postemergence test; type: in vivo, Zea mays
Outline: as §2

[12] = test system: goosegrass; experiment: Test F preemergence test; type: in vivo, Eleusine indica; settings: scale 0 to 100
Outline: as §1

[13] = test system: Surinam grass; experiment: Test F preemergence test; type: in vivo, Brachiaria decumbens; settings: scale 0 to 100
Outline: as §1

[14] = test system: southern sandbur; experiment: Test F preemergence test; type: in vivo, Cenchrus echinatus; settings: scale 0 to 100
Outline: as §1

[15] = test system: blackgrass; experiment: Test C pre-/postemergence test; type: in vivo, Alopecurus myosuroides
Outline: as §2

[16] = test system: bermudagrass; experiment: Test F preemergence test; type: in vivo, Cynodon dactylon; settings: scale 0 to 100
Outline: as §1

[17] = 62 g ai/ha, Preemergence, scale 0 to 100
[18] = 125 g ai/ha, preemergence, scale 0 (no effect) to 100 (complete control)
[19] = Postemergence, 62 g ai/ha, scale 0 to 100, 0 no effect, 100 complete control
[20] = Postemergence, 125 g ai/ha, scale 0 to 100, 0 no effect, 100 complete control
[21] = Postemergence, 250 g ai/ha, scale 0 to 100, 0 no effect, 100 complete control
[22] = Preemergence, 31 g ai/ha, scale 0 to 100 (0 no effect, 100 complete control)
[23] = preemergence, 250 g ai/ha, scale 0 (no effect) to 100 (complete control)

SMILES: CCn1nc(C(F)(F)F)c(CS(=O)(=O)c2cc(C)cc[n+]2[O-])c1OCC(F)(F)F [Compound 64]
- Plant response rating, Black Mustard ([1]; 16 g ai/ha, preemergence): 0
- Black Mustard plant response rating ([1]; 62 g ai/ha, Preemergence): 80
- Black Mustard plant response rating ([1]; 125 g ai/ha, preemergence): 90
- Plant response rating, Black Mustard ([1]; Preemergence, 31 g ai/ha): 0
- Plant response rating, Purple Nutsedge ([2]; 16 g ai/ha, preemergence): 20
- Purple Nutsedge plant response rating ([2]; 62 g ai/ha, Preemergence): 50
- Purple Nutsedge plant response rating ([2]; 125 g ai/ha, preemergence): 80
- Plant response rating, Purple Nutsedge ([2]; Preemergence, 31 g ai/ha): 50
- Plant response rating, Crabgrass, Large ([3]; 16 g ai/ha, preemergence): 10
- Crabgrass, Large plant response rating ([3]; 62 g ai/ha, Preemergence): 75
- Crabgrass, Large plant response rating ([3]; 125 g ai/ha, preemergence): 95
- Plant response rating, Crabgrass, Large ([3]; Preemergence, 31 g ai/ha): 65
- Plant response rating, Barnyardgrass ([4]; 16 g ai/ha, preemergence, scale 0 to 100 (0 no effect, 100 complete control)): 65
- Barnyardgrass plant response rating [4, 17]: 100
- Barnyardgrass plant response rating ([4]; 125 g ai/ha, preemergence, scale 0 to 100): 100
- Plant response rating, Barnyardgrass ([4]; Preemergence, 31 g ai/ha, scale 0 to 100): 80
- Cupgrass, Woolly plant response rating [5, 17]: 100
- Cupgrass, Woolly plant response rating [5, 18]: 100
- Plant response rating (0 to 100), Cupgrass, Woolly ([5]; Postemergence, 31 g ai/ha): 0
- Plant response rating, Cupgrass, Woolly [5, 19]: 0
- Plant response rating, Cupgrass, Woolly [5, 20]: 0
- Plant response rating, Cupgrass, Woolly [5, 21]: 50
- Plant response rating, Cupgrass, Woolly [5, 22]: 60
- Cupgrass, Woolly plant response rating [5, 23]: 100
- Plant response rating, Signalgrass ([6]; 16 g ai/ha, preemergence): 30
- Signalgrass plant response rating ([6]; 125 g ai/ha, preemergence): 100
- Plant response rating, Signalgrass ([6]; Preemergence, 62 g ai/ha): 100
- Plant response rating, Signalgrass ([6]; Preemergence, 31 g ai/ha): 30
- Plant response rating, Kochia ([7]; 16 g ai/ha): 0
- Kochia plant response rating ([7]; 125 g ai/ha): 75
- Plant response rating, Ragweed ([8]; 16 g ai/ha, preemergence): 0
- Ragweed plant response rating ([8]; 125 g ai/ha, preemergence): 85
- Plant response rating, Ragweed ([8]; Preemergence, 62 g ai/ha): 50
- Plant response rating, Ragweed ([8]; Preemergence, 31 g ai/ha): 30
- Plant response rating, Ryegrass, Italian ([9]; 16 g ai/ha, preemergence): 0
- Ryegrass, Italian plant response rating ([9]; 125 g ai/ha, preemergence): 90
- Plant response rating, Ryegrass, Italian ([9]; Preemergence, 62 g ai/ha): 75
- Plant response rating, Ryegrass, Italian ([9]; Preemergence, 31 g ai/ha): 20
- Plant response rating, Quackgrass ([10]; 16 g ai/ha, preemergence): 40
- Quackgrass plant response rating ([10]; 62 g ai/ha, Preemergence): 95
- Quackgrass plant response rating ([10]; 125 g ai/ha, preemergence): 95
- Plant response rating, Quackgrass ([10]; Preemergence, 31 g ai/ha): 75
- Corn plant response rating [11, 17]: 95
- Corn plant response rating [11, 18]: 95
- Plant response rating (0 to 100), Corn ([11]; Postemergence, 31 g ai/ha): 0
- Plant response rating, Corn [11, 19]: 0
- Plant response rating, Corn [11, 20]: 0
- Plant response rating, Corn [11, 21]: 0
- Plant response rating, Corn [11, 22]: 0
- Corn plant response rating [11, 23]: 95
- Plant response rating, Goosegrass ([12]; 16 g ai/ha, preemergence): 75
- Goosegrass plant response rating ([12]; 62 g ai/ha, Preemergence): 90
- Goosegrass plant response rating ([12]; 125 g ai/ha, preemergence): 98
- Plant response rating, Goosegrass ([12]; Preemergence, 31 g ai/ha): 90
- Plant response rating, Surinam Grass ([13]; 16 g ai/ha, preemergence): 10
- Surinam Grass plant response rating ([13]; 125 g ai/ha, preemergence): 100
- Plant response rating, Surinam Grass ([13]; Preemergence, 62 g ai/ha): 95
- Plant response rating, Surinam Grass ([13]; Preemergence, 31 g ai/ha): 90
- Plant response rating, Sandbur ([14]; 16 g ai/ha, preemergence): 25
- Sandbur plant response rating ([14]; 125 g ai/ha, preemergence): 100
- Plant response rating, Sandbur ([14]; Preemergence, 62 g ai/ha): 80
- Plant response rating, Sandbur ([14]; Preemergence, 31 g ai/ha): 80
- Blackgrass plant response rating [15, 17]: 90
- Blackgrass plant response rating [15, 18]: 100
- Plant response rating (0 to 100), Blackgrass ([15]; Postemergence, 31 g ai/ha): 20
- Plant response rating, Blackgrass [15, 19]: 60
- Plant response rating, Blackgrass [15, 20]: 60
- Plant response rating, Blackgrass [15, 22]: 90
- Blackgrass plant response rating [15, 23]: 100
- Plant response rating, Bermudagrass ([16]; 16 g ai/ha, preemergence): 0
- Bermudagrass plant response rating ([16]; 62 g ai/ha, Preemergence): 75
- Bermudagrass plant response rating ([16]; 125 g ai/ha, preemergence): 90
- Plant response rating, Bermudagrass ([16]; Preemergence, 31 g ai/ha): 25
